Source: US4022606A, “Antimicrobial use of ω-aminocarboxylic acid amides” (Henkel & Cie G.m.b.H., priority 1973, dated 1977)
≈ marks a conversion by molar mass, not a printed value. Blank lines part the entries; values can stand above or below the molecule they belong to.

Experiments:
Format in all cases: cell-based
[1] = test system: Pseudomonas aeruginosa; experiment: Microbicidal effect, suspension test, germ 3; conditions: 18° C. to 21° C.
Description: (§1) The microbicidal effect of some products named above was determined by means of the suspension test. The methodology of this testing procedure has been taken from the standards for the testing of chemical disinfectants, published in 1959 by the German Association for Hygiene and Microbiology. In conformity with these standards, 0.1 ml of a test organism suspension of the following enumerated bacteria or fungi was pipetted into test tubes at 18° C. to 21° C.
(§2) 3) Pseudomonas aeruginosa
(§3) The products of the invention to be tested were dissolved in tap water of 16° dH (German degrees of hardness). Then, 10 ml of the respective dilution quantity of the product to be tested were added to each test tube. The concentrations of the products according to the invention were 100 ppm, 250 ppm and 500 ppm in each case. After a duration of action amounting to 1, 2.5, 5, 10, 20, 30 and 60 minutes, a loop of material was taken from each test tube and inoculated in 10 ml of nutrient solution which contained 3% Tween and 0.3% Lecithin as de-inhibitors. The nutrient solutions inoculated with bacteria were incubated at 37° C. whereas the nutrient solutions inoculated with fungi were incubated at 30° C. After 6 days, the growth of the cultures was macroscopically evaluated.

[2] = test system: Mixture of contaminated water from 3 scrubbers of air conditioning installations; experiment: Minimum inhibitory concentration, dilution test, germ 7
Description: (§4) In order to measure the antimicrobial efficacy of the above-named ω-aminocarboxylic acid amides, their inhibitory effect upon the subsequently listed bacteria and fungi, as well as upon the germs in contaminated process water was determined.
7) Mixture of contaminated water
from 3 scrubbers of air con-
ditioning installations
(§5) The minimum inhibitory concentrations of the products to be tested were determined by means of the dilution test according to the standards for the examination of chemical disinfectants which had been published in 1959 by the Deutsche Gesellschaft fur Hygiene und Mikrobiologie (German Association for Hygiene and Microbiology). The tests were carried out in test tubes which were filled with Standard-I-Broth (Merck) or with beer wort (8° Be) and diluted 1:5 with tap water. After the addition of the active substances, the volume of the nutrient solution in the test tubes was adjusted to 10 ml. Next, the test tubes were inoculated with 0.1 ml test organism suspension. In the case of bacteria, the inoculated test tubes were incubated in the incubator for 3 days at 37° C. and in the case of fungi, they incubated for 6 days at 30° C. Subsequently, the concentration of the compound added to the nutrient medium which was just able to inhibit completely the growth of the germs was determined. The value thus determined was designated as the minimum inhibitory concentration (m.i.c.). The following concentration intervals were used for the tests: 1,000 ppm, 750 ppm, 500 ppm, 250 ppm, 100 ppm, 50 ppm, 25 ppm, 10 ppm, 7.5 ppm, 5 ppm, 2.5 ppm, and 1 ppm.
(§6) The inhibitory concentrations of the individual products for the above-quoted germs which were determined in this dilution test are listed in the following Table III.

[3] = test system: Staphylococcus aureus; experiment: Minimum inhibitory concentration, dilution test, germ 1; conditions: 72 h, 5 × 10^7 organisms/ml, 3 days at 37° C.
Description: as §4
(§7) 1) Staphylococcus aureus
as §5, §6

[4] = test system: Mixture of contaminated water from 3 cooling towers; experiment: Minimum inhibitory concentration, dilution test, germ 6
Description: as §4
6) Mixture of contaminated water
as §5, §6

[5] = test system: Candida albicans; experiment: Minimum inhibitory concentration, dilution test, germ 4; conditions: 144 h, 2 × 10^6 organisms/ml, 6 days at 30° C.
Description: as §4
4) Candida albicans 2 × 10^6 organisms/ml
as §5, §6

[6] = test system: Escherichia coli; experiment: Microbicidal effect, suspension test, germ 2; conditions: 18° C. to 21° C.
Description: as §1
(§8) 2) Escherichia coli 4 × 10^7 organisms/ml
as §3

[7] = test system: Pseudomonas aeruginosa; experiment: Minimum inhibitory concentration, dilution test, germ 3; conditions: 72 h, 4 × 10^7 organism/ml, 3 days at 37° C.
Description: as §4, §2, §5, §6

[8] = test system: Escherichia coli; experiment: Minimum inhibitory concentration, dilution test, germ 2; conditions: 72 h, 4 × 10^7 organisms/ml, 3 days at 37° C.
Description: as §4, §8, §5, §6

[9] = test system: Aspergillus niger; experiment: Minimum inhibitory concentration, dilution test, germ 5; conditions: 144 h, 9 × 10^5 organisms/ml, 6 days at 30° C.
Description: as §4
5) Aspergillus niger 9 × 10^5 organisms/ml
as §5, §6

[10] = test system: Staphylococcus aureus; experiment: Microbicidal effect, suspension test, germ 1; conditions: 18° C. to 21° C.
Description: as §1, §7, §3

[11] = test system: mixed suspension of Scenedesmus obliquus and Chlorella vulgaris; experiment: Efficacy in inhibiting growth of algae; conditions: 168 h; after 7 days, pH 7.2; read-out: Minimum Inhibitory Concentration, growth of algae
Description: The efficacy in inhibiting growth of algae was determined in cylindrical vessels under intensive aeration. Into the vessels, there were introduced 100 ml of a nutrient solution to which increasing quantities of active substances had been added as well as 4 ml of a mixed suspension of Scenedesmus obliquus and Chlorella vulgaris.
The nutrition solution has the following composition:
These compounds were dissolved in 1000 ml of distilled water. The pH value of the nutrient solution was 7.2. The tests were carried out with the following concentration intervals of the active substance: 10 ppm, 5 ppm, 2.5 ppm, 2 ppm, 1.5 ppm, 1 ppm, 0.75 ppm, 0.5 ppm, and 0.25 ppm.

[12] = test system: Desulfovibrio desulfuricans; experiment: Inhibition of the growth of sulfate-reducing bacteria; conditions: 672 h, 6× 10^5 organisms/ml, 37° C., 4 weeks, pH 7.4, read-out: Inhibitory Concentration, growth of Desulfovibrio Desulfuricans
Description: The minimum inhibitory concentrations were determined in 50 ml screw-top bottles. The bottles were charged with an optimum nutrient solution for the growth of sulfate-reducing bacteria of the following composition:
which compounds were dissolved in 1000 ml of distilled water. The pH value of the nutrient solution was 7.4.
After various concentrations of the products to be tested had been added, 1 ml of a pure culture of Desulfovibrio desulfuricans 6× 10^5 organisms/ml was used for inoculation, followed by incubation at 37° C. for 4 weeks. The following concentration intervals were used for the tests: 100 ppm, 50 ppm, 40 ppm, 30 ppm, 20 ppm, 10 ppm, 5 ppm, 2.5 ppm, and 1 ppm.
In this test, the minimum inhibitory concentrations listed in the following Table VI were determined for the individual products.

SMILES: CCCCCCCCCCCCNC(=O)CN.Cl [Product A, N-glycyl-dodecylamine hydrochloride]
Sterilization Time ([1]; 100 ppm in tap water): 60 min
Sterilization Time ([1]; 250 ppm in tap water): 20 min
Sterilization Time ([1]; 500 ppm in tap water): 10 min
MIC [2]: 25 µg/mL
MIC [3]: 50 µg/mL
MIC [4]: 25 µg/mL
MIC [5]: 50 µg/mL
Sterilization Time ([6]; 100 ppm in tap water): 20 min
Sterilization Time ([6]; 250 ppm in tap water): 10 min
Sterilization Time ([6]; 500 ppm in tap water): 10 min
MIC [7]: 500 µg/mL
MIC [8]: 100 µg/mL
MIC [9]: 100 µg/mL
Sterilization Time ([10]; 100 ppm in tap water): 10 min
Sterilization Time ([10]; 250 ppm in tap water): 5 min
Sterilization Time ([10]; 500 ppm in tap water): 5 min

SMILES: CCCCCCCCCCNC(=O)CCN [Product B, 3-aminopropionic acid-decylamide]
MIC [11]: 1 µg/mL (≈ 4.38 µM)
Sterilization Time ([1]; 100 ppm in tap water): 30 min
Sterilization Time ([1]; 250 ppm in tap water): 10 min
Sterilization Time ([1]; 500 ppm in tap water): 10 min
MIC [2]: 25 µg/mL (≈ 109 µM)
MIC [3]: 50 µg/mL (≈ 219 µM)
MIC [4]: 25 µg/mL (≈ 109 µM)
MIC [5]: 100 µg/mL (≈ 438 µM)
Sterilization Time ([6]; 100 ppm in tap water): 10 min
Sterilization Time ([6]; 250 ppm in tap water): 10 min
Sterilization Time ([6]; 500 ppm in tap water): 10 min
MIC [7]: 100 µg/mL (≈ 438 µM)
MIC [12]: 5 µg/mL (≈ 21.9 µM)
MIC [8]: 50 µg/mL (≈ 219 µM)
MIC [9]: 100 µg/mL (≈ 438 µM)
Sterilization Time ([10]; 100 ppm in tap water): 5 min
Sterilization Time ([10]; 250 ppm in tap water): 5 min
Sterilization Time ([10]; 500 ppm in tap water): 5 min

SMILES: CCCCCCCCCCCCNC(=O)CCCCCNC(=O)CCCCCN [Product E]
MIC [2]: 25 µg/mL (≈ 60.7 µM)
MIC [3]: 50 µg/mL (≈ 121 µM)
MIC [4]: 25 µg/mL (≈ 60.7 µM)
MIC [5]: 250 µg/mL (≈ 607 µM)
MIC [7]: 250 µg/mL (≈ 607 µM)
MIC [8]: 50 µg/mL (≈ 121 µM)
MIC [9]: 250 µg/mL (≈ 607 µM)

These reach a lower MIC [2]. Values come first.

MIC [2]: 10 µg/mL (≈ 30.6 µM)
MIC [3]: 25 µg/mL (≈ 76.6 µM)
MIC [4]: 10 µg/mL (≈ 30.6 µM)
MIC [5]: 100 µg/mL (≈ 306 µM)
MIC [7]: 1000 µg/mL (≈ 3060 µM)
MIC [12]: 2.5 µg/mL (≈ 7.66 µM)
MIC [8]: 25 µg/mL (≈ 76.6 µM)
MIC [9]: 250 µg/mL (≈ 766 µM)
SMILES: CCCCCCCCCCCCNC(=O)CCCCCN(C)C [Product C, 6-(N,N-dimethylamino)capronic acid-dodecylamide]
MIC [11]: 0.75 µg/mL (≈ 2.3 µM)
Sterilization Time ([1]; 100 ppm in tap water): 30 min
Sterilization Time ([1]; 250 ppm in tap water): 10 min
Sterilization Time ([1]; 500 ppm in tap water): 5 min
Sterilization Time ([6]; 100 ppm in tap water): 10 min
Sterilization Time ([6]; 250 ppm in tap water): 5 min
Sterilization Time ([6]; 500 ppm in tap water): 5 min
Sterilization Time ([10]; 100 ppm in tap water): 5 min
Sterilization Time ([10]; 250 ppm in tap water): 2.5 min
Sterilization Time ([10]; 500 ppm in tap water): 2.5 min

MIC [2]: 5 µg/mL (≈ 16.7 µM)
MIC [3]: 5 µg/mL (≈ 16.7 µM)
MIC [4]: 5 µg/mL (≈ 16.7 µM)
MIC [5]: 50 µg/mL (≈ 167 µM)
MIC [7]: 100 µg/mL (≈ 335 µM)
MIC [8]: 5 µg/mL (≈ 16.7 µM)
MIC [9]: 50 µg/mL (≈ 167 µM)
SMILES: CCCCCCCCCCCCNC(=O)CCCCCN [Product D, 6-aminocapronic acid-dodecylamide]

MIC [2]: 7.5 µg/mL (≈ 23 µM)
MIC [3]: 5 µg/mL (≈ 15.3 µM)
MIC [4]: 7.5 µg/mL (≈ 23 µM)
MIC [5]: 50 µg/mL (≈ 153 µM)
MIC [7]: 250 µg/mL (≈ 766 µM)
MIC [8]: 5 µg/mL (≈ 15.3 µM)
MIC [9]: 100 µg/mL (≈ 306 µM)
SMILES: CCCCCCCCCCCCCCNC(=O)CCCCCN [Product F]
